This note sets out measurements from patent publication US11344601B2, “Tumor microenvironment-related target TAK1 and application thereof in inhibition of tumor” (Shanghai Institutes for Biological Sciences, Chinese …, priority 2017, dated 2022).

One experiment has as its system SASP effectors. Put plainly: Genome-wide expression microarray of SASP effectors in PSC27 cells. The format is cell-based, human. The note with it: bleomycin in combination with 5Z-7 vs bleomycin alone. The method, then:
FIG. 34. After simultaneous treatment of PSC27 cells with bleomycin and/or 5Z-7, SB203580 (SB) and RAD001, total RNA was analyzed by microarray for expression-spectrum.
c. Experimental Treatment In Vitro • 100 nM docetaxel (DTX), 100 nM paclitaxel (PTX), 200 nM vincristine (VCR), 50 μg/ml bleomycin (BLEO), 1 μM mitoxantrone (MIT), or 10 Gy ^137CS ionizating radiation (γ-radiation at 743 rad/min, RAD) was added to the culture medium when PSC27 cells grown to 80% (PSC27-Pre) to produce cell damage. After drug treatment for 6 hours, the cells were simply washed by PBS for 3 times and kept in the culture medium for 7 to 10 days, followed by subsequent experiments. 2. Plasmid Preparation and Lentiviral Transfection • Full-length human IKKα and Flag were cloned as a fusion protein between the restriction sites BamHI and XbaI in the expression vector pCR3.1. Full-length human mTOR and GST were cloned as a fusion protein between a pair of NotI restriction sites in the expression vector pcDNA3. […] FV1000 laser scanning confocal microscopy (Olympus) was used to obtain cellular confocal fluorescence images to determine the extent of DNA damage. • Antibody anti-TAK1 used for histological IHC staining in clinical prostate, non-small cell lung cancer patients and breast cancer patients, was purchased from Proteintech, idib. […]

A further experiment concerns the target T1, TAK1 (Homo sapiens, UniProt O43318).
T1 construct: PSC27 cells were treated with bleomycin and cell lysates were subject to anti-p-TAK1-mediated IP precipitation; endogenous in cells; host or cells: PSC27 human prostate stromal cells
T1 sequence (O43318 1-606): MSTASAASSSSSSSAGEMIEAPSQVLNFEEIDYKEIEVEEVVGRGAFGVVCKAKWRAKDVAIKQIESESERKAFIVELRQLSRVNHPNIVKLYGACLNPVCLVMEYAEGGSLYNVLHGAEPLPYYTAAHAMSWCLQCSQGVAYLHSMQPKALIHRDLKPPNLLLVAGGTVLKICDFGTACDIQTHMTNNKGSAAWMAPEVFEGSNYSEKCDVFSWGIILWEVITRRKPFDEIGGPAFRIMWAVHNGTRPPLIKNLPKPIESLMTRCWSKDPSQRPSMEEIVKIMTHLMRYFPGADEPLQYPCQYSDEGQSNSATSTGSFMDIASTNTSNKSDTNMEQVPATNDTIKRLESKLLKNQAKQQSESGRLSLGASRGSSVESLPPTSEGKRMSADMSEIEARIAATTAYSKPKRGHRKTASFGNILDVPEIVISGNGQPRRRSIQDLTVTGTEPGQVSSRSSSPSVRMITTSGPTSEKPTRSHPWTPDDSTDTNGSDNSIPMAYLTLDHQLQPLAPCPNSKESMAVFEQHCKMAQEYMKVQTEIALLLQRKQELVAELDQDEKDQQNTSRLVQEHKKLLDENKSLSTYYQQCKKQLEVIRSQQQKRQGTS
Kind of experiment: IP, in vitro kinase assay and Western blot of TAK1 activation in damaged PSC27 stromal cells. It counts as cell-based. (In western blotting, separated proteins are transferred to a membrane and probed.)

Protocol for TAK1: In the presence of the TAK1 inhibitor 5Z-7, PSC27 cells were treated with bleomycin and cell lysates were subject to anti-p-TAK1-mediated IP precipitation. IP products were analyzed by in vitro kinase assay, and MKK6 was used as TAK1 substrate. p38 phosphorylation was analyzed by Western blot with GAPDH as the loading control. In addition, IL-1α (20 ng/ml) was used to treat stromal cells and was further analyzed by similar IP and in vitro kinase assay.

Turning to `COc1cc(O)c2c(c1)/C=C/C[C@H](O)[C@H](O)C(=O)/C=C\C[C@H](C)OC2=O` [5Z-7, 5z-7-oxozeaenol], the “expression of SASP effectors” value in the experiment with SASP effectors was “significantly inhibited”. For the same compound, the “activation of TAK1 in damaged stromal cells” value at TAK1 (bleomycin-treated PSC27, 500 nM 5Z-7, IP and in vitro kinase assay with MKK6) is on record as “largely abolished”. Also, at TAK1 (p-TAK1 antibody IP after bleomycin), the “physical interaction between TAK1 and TRAF6” value was “abolished”.
